ChEMBL document CHEMBL1201862, “PubChem BioAssay data set” (2004)
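Following 48 hours of exposure in 96-well plates, responses at five concentrations were used to interpolate endpoints linearly. Abbreviation: GI50, concentration required for 50% inhibition of growth.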 Active and inactive are the calls of the source. Cut-off read from the data, not from the text of the source: active = GI50 up to about 1.1 µM and inactive = higher.

Key:
Test in all cases: growth of human tumour cells (NCI), 48 h
HL-60 = tested on: HL-60
MOLT-4 = tested on: MOLT-4
SN12C = tested on: SN12C
MDA-N = tested on: MDA-N
Hs-578T = tested on: Hs-578T
RPMI-8226 = tested on: RPMI-8226
SK-MEL-28 = tested on: SK-MEL-28
NCI-H23 = tested on: NCI-H23
RXF 393 = tested on: RXF 393
EKVX = tested on: EKVX
SF-295 = tested on: SF-295
HOP-62 = tested on: HOP-62
SK-OV-3 = tested on: SK-OV-3
MCF7 = tested on: MCF7
OVCAR-4 = tested on: OVCAR-4
MDA-MB-435 = tested on: MDA-MB-435
NCI/ADR-RES = tested on: NCI/ADR-RES
CCRF-CEM = tested on: CCRF-CEM
UO-31 = tested on: UO-31
NCI-H460 = tested on: NCI-H460
PC-3 = tested on: PC-3
A549 = tested on: A549
DU-145 = tested on: DU-145
SW-620 = tested on: SW-620
A498 = tested on: A498
OVCAR-8 = tested on: OVCAR-8
NCI-H522 = tested on: NCI-H522
UACC-257 = tested on: UACC-257
IGROV-1 = tested on: IGROV-1
KM12 = tested on: KM12
M14 = tested on: M14
SR = tested on: SR
HT-29 = tested on: HT-29
SK-MEL-5 = tested on: SK-MEL-5
HCT-15 = tested on: HCT-15
ACHN = tested on: ACHN
OVCAR-5 = tested on: OVCAR-5
SK-MEL-2 = tested on: SK-MEL-2
SNB-75 = tested on: SNB-75
TK-10 = tested on: TK-10
NCI-H226 = tested on: NCI-H226
OVCAR-3 = tested on: OVCAR-3
SF-539 = tested on: SF-539
LOX IMVI = tested on: LOX IMVI
CAKI-1 = tested on: CAKI-1
K562 = tested on: K562
COLO 205 = tested on: COLO 205
MDA-MB-231 = tested on: MDA-MB-231
SF-268 = tested on: SF-268
UACC-62 = tested on: UACC-62
Malme-3M = tested on: Malme-3M
SNB-19 = tested on: SNB-19
786-0 = tested on: 786-0
HCT-116 = tested on: HCT-116
U-251 = tested on: U-251

[O-][n+]1onc2c1CCC(=N\O)/C2=N/Nc1ccccc1
GI50 (HL-60): 49.4 µM (inactive)
GI50 (MOLT-4): > 100 µM (inactive)
GI50 (SN12C): > 100 µM (inactive)
GI50 (MDA-N): > 100 µM (inactive)
GI50 (Hs-578T): > 100 µM (inactive)
GI50 (RPMI-8226): > 100 µM (inactive)
GI50 (SK-MEL-28): > 100 µM (inactive)
GI50 (NCI-H23): > 100 µM (inactive)
GI50 (RXF 393): > 100 µM (inactive)
GI50 (EKVX): > 100 µM (inactive)
GI50 (SF-295): > 100 µM (inactive)
GI50 (HOP-62): > 100 µM (inactive)
GI50 (SK-OV-3): > 100 µM (inactive)
GI50 (MCF7): > 100 µM (inactive)
GI50 (OVCAR-4): > 100 µM (inactive)
GI50 (MDA-MB-435): > 100 µM (inactive)
GI50 (NCI/ADR-RES): > 100 µM (inactive)
GI50 (CCRF-CEM): > 100 µM (inactive)
GI50 (UO-31): > 100 µM (inactive)
GI50 (NCI-H460): > 100 µM (inactive)
GI50 (PC-3): > 100 µM (inactive)
GI50 (A549): > 100 µM (inactive)
GI50 (DU-145): > 100 µM (inactive)
GI50 (SW-620): > 100 µM (inactive)
GI50 (A498): > 100 µM (inactive)
GI50 (OVCAR-8): > 100 µM (inactive)
GI50 (NCI-H522): > 100 µM (inactive)
GI50 (UACC-257): > 100 µM (inactive)
GI50 (IGROV-1): > 100 µM (inactive)
GI50 (KM12): > 100 µM (inactive)
GI50 (M14): > 100 µM (inactive)
GI50 (SR): > 100 µM (inactive)
GI50 (HT-29): > 100 µM (inactive)
GI50 (SK-MEL-5): > 100 µM (inactive)
GI50 (HCT-15): > 100 µM
GI50 (ACHN): > 100 µM (inactive)
GI50 (OVCAR-5): > 100 µM (inactive)
GI50 (SK-MEL-2): > 100 µM (inactive)
GI50 (SNB-75): > 100 µM (inactive)
GI50 (TK-10): > 100 µM (inactive)
GI50 (NCI-H226): > 100 µM (inactive)
GI50 (OVCAR-3): > 100 µM (inactive)
GI50 (SF-539): > 100 µM (inactive)
GI50 (LOX IMVI): > 100 µM (inactive)
GI50 (CAKI-1): > 100 µM (inactive)
GI50 (K562): > 100 µM (inactive)
GI50 (COLO 205): > 100 µM (inactive)
GI50 (MDA-MB-231): > 100 µM (inactive)
GI50 (SF-268): > 100 µM (inactive)
GI50 (UACC-62): > 100 µM (inactive)
GI50 (Malme-3M): > 100 µM (inactive)
GI50 (SNB-19): > 100 µM (inactive)
GI50 (786-0): > 100 µM (inactive)
GI50 (HCT-116): > 100 µM (inactive)

C#CCn1c(=O)c(I)cn(/C(=C\C(=O)OCC)C(=O)OCC)c1=O
GI50 (Hs-578T): 49.8 µM (inactive)
GI50 (SF-295): 18.7 µM (inactive)
GI50 (HOP-62): 17.4 µM (inactive)
GI50 (SK-OV-3): 17.9 µM (inactive)
GI50 (MDA-MB-435): 17.1 µM (inactive)
GI50 (NCI/ADR-RES): 26.1 µM (inactive)
GI50 (NCI-H460): 20.3 µM (inactive)
GI50 (A549): 34.8 µM (inactive)
GI50 (DU-145): 17.5 µM (inactive)
GI50 (A498): 16.7 µM (inactive)
GI50 (KM12): 17.3 µM (inactive)
GI50 (U-251): 15.7 µM (inactive)
GI50 (OVCAR-5): 20.6 µM (inactive)
GI50 (SK-MEL-2): 18.9 µM (inactive)
GI50 (SNB-75): 17.1 µM (inactive)
GI50 (NCI-H226): 17.9 µM (inactive)
GI50 (SF-539): 18.4 µM (inactive)
GI50 (UACC-62): 16.9 µM (inactive)
GI50 (SNB-19): 26.9 µM (inactive)
